One test has as its system HCMV wild-type. Description: HCMV yield assay. It is filed as cell-based, Human Cytomegalovirus. The settings on record: human foreskin fibroblasts, reduction of virus yield by 50%; for IC50: Human betaherpesvirus 5, Fibroblast, read-out: IC50 (ug/ml) HCMV. The method, then:
Yield assay. Monolayer cultures of human foreskin fibroblasts are infected with HCMV wild-type, typically at a multiplicity of infection equal to 0.2, in the presence of inhibitor compound (varying concentrations). At three days post-infection, total virus produced in these cultures (i.e. virus yield) is assessed by harvesting and titering the virus in 12-well plates of cultured human foreskin fibroblasts (done in the absence of inhibitor). Plaques are quantified at 2 weeks post-infection. An inhibitor of HCMV is identified by the reduction in titer of virus yield in the presence, compared to the titer in the absence of compound. In this assay, the relative anti-HCMV activity of an inhibitor is typically determined by calculating the IC50 or IC90 value, that is, the amount of compound required to reduce the virus yield by 50% or 90%, respectively. Table I describes IC50 data for compounds tested against HCMV.

A further test has as its system HSV-1. In words: HSV Antiviral (ELISA) Assay. Type of test: cell-based, herpes simplex virus type 1. Particulars: Vero cells, HSV-1, about 24 hours post-infection; for IC50: Human alphaherpesvirus 1, read-out: IC50 (ug/ml) HSV. The method, then:
Vero cells (ATCC #CCL-81) are plated on 96-well tissue cultugre plates at 3.5×10^4 cells per 100 μl tissue culture DMEM (Dulbecco's modified Eagle media) supplemented with 2% fetal bovine serum (FBS) in each well. After overnight incubation @ 37° C. (in 5% CO2) and 30 minutes prior to infection with HSV-1 (multiplicity of infection equal to 0.006), cells are either untreated, or treated with test compound (multiple concentrations) or reference standard drug control. After approximately 24 hours post-infection incubation @ 37° C. (in 5% CO2), cells are fixed for ELISA assay. The primary antibody is murine anti-HSV glycoprotein D monoclonal primary antibody and the secondary antibody is goat anti-mouse IgG linked to β-galactosidase. Thus the extent of viral replication is determined by assessing β-galactosidase activity by quantifying the generation of the 4-methyl umbelliferone fluorescent cleavage product after addition of the methyl umbelliferyl-β-D-galactoside (Sigma #M1633) substrate on a microfluorimeter (365 nm for excitation and 450 nm for emission). Antiviral activity (IC50) of the test compound is determined by comparing the flourescence obtained in absence of compound to that obtained in the presence of compound.
A general note: ELISA stands for enzyme-linked immunosorbent assay.

The test system of a further test is VZV strain Ellen. In words: VZV Antiviral (ELISA) Assay. Type of test: cell-based, varicella-zoster virus. The settings on record: human foreskin fibroblast cells, three days; for inhibition at 10 µg/mL / IC50: Human alphaherpesvirus 3, 72 h; for inhibition at 10 µg/mL: read-out: % inhibition 10 ug/ml VZV; for IC50: read-out: IC50 (ug/ml) VZV. As to the method:
For the generation of stock VZV to be used in the assay, VZV strain Ellen (ATCC #VR-1367) is used to infect human foreskin fibroblast (HFF) cells at low multiplicity (less than 0.1) and incubated overnight at 37° C. in 5% CO2. After the overnight incubation, the mixture of uninfected and VZV-infected HFF infected cells are then harvested and added to each well of 96-well plates (3.5×10^4 cells in 100 μl DMEM supplemented with 2% FBS) which contain test compound or the reference standard drug control (in 100 μl DMEM supplemented with 2% FBS per well). These cells are incubated for three days at 37° C. in 5% CO2, then fixed for ELISA assay. The primary antibody is murine anti-VZV glycoprotein II monoclonal antibody (Applied Biosystems, Inc. #13-145-100) and the secondary antibody is goat anti-mouse IgG linked to β-galactosidase. Thus the extent of viral replication is determined by assessing β-galactosidase activity by quantifying the generation of the 4-methyl umbelliferone fluorescent cleavage product after addition of the methyl umbelliferyl-β-D-galactoside (Sigma #M1633) substrate on a microfluorimeter (365 nm for excitation and 450 nm for emission). Antiviral activity (IC50) of the test compound is determined by comparing the flourescence obtained in absence of compound to that obtained in the presence of compound.

In brackets after ≈: the same amount, converted by molar mass.

The text below walks through data of patent US6403617B1, “Diaminopyridine-containing thiourea inhibitors of herpes viruses” (American Home Products Corp., priority 1998, dated 2002).

Take `COc1cc(OC)c(NC(=S)Nc2ccc(NC(=O)c3ccco3)cn2)cc1Cl` [Example 512, Furan-2-carboxylic acid {6-[3-(5-chloro-2,4-dimethoxy-phenyl)-thioureido]-pyridin-3-yl}-amide]: the IC50 in the test on HCMV wild-type worked out at 0.7 µg/mL (≈ 1.62 µM); with HSV-1, 0.5 µg/mL (≈ 1.16 µM); with VZV strain Ellen it was 4 µg/mL (≈ 9.24 µM). In the test with VZV strain Ellen (10 ug/ml), the inhibition at 10 µg/mL is 70%.

`COc1cc(OC)c(NC(=S)Nc2ccc(NC(=O)c3csnn3)cn2)cc1Cl` [Example 514, [1,2,3]Thiadiazole-4-carboxylic acid {6-[3-(5-chloro-2,4-dimethoxy-phenyl)-thioureido]-pyridin-3-yl}-amide]: the IC50 was 1.2 µg/mL (≈ 2.66 µM) with HCMV wild-type, 4 µg/mL (≈ 8.87 µM) in the test with HSV-1 and greater than 10 µg/mL with VZV strain Ellen. In addition, the inhibition at 10 µg/mL in the test with VZV strain Ellen (10 ug/ml) is 62%.

For `O=C(Nc1ccc(NC(=S)Nc2cc(Cl)cc(Cl)c2)cn1)c1csnn1` [Example 515, [1,2,3]Thiadiazole-4-carboxylic acid {5-[3-(3,5-dichloro-phenyl)-thioureido]-pyridin-2-yl}-amide], the IC50 with HCMV wild-type, with HSV-1 and in the test with VZV strain Ellen was greater than 10 µg/mL in each case. In addition, the inhibition at 10 µg/mL with VZV strain Ellen (10 ug/ml) stood at 30%.

For “Pyridine-2-carboxylic acid {6-[3-(5-chloro-2,4-dimethoxy-phenyl)-thioureido]-pyridin-3-yl}-amide [Example 506]”, in the test with HCMV wild-type, the “IC50 (ug/ml) HCMV” value was greater than 10 µg/mL. In addition, in the test with HSV-1, the “IC50 (ug/ml) HSV” value is greater than 10 µg/mL. Moreover, the “% inhibition 10 ug/ml VZV” value in the test with VZV strain Ellen (10 ug/ml) is given as 68%. Besides, the “IC50 (ug/ml) VZV” value with VZV strain Ellen was greater than 10 µg/mL.
